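A five-concentration, 48-hour dose response in 96-well plates underlies each endpoint, interpolated linearly between surrounding concentrations. GI50 = concentration required for 50% inhibition of growth.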 Activity calls are given as the source filed them. Cut-off read from the data, not from the text of the source: active = GI50 up to about 1.1 µM and inactive = higher.
Tests used:
Experiment in all cases: NCI anticancer screen, dose series, 48 h
M14 = tested on: M14
OVCAR-5 = tested on: OVCAR-5
SW-620 = tested on: SW-620
A498 = tested on: A498
UACC-257 = tested on: UACC-257
ACHN = tested on: ACHN
RXF 393 = tested on: RXF 393
TK-10 = tested on: TK-10
LOX IMVI = tested on: LOX IMVI
UO-31 = tested on: UO-31
HCT-116 = tested on: HCT-116
RPMI-8226 = tested on: RPMI-8226
NCI-H226 = tested on: NCI-H226
786-0 = tested on: 786-0
SK-MEL-2 = tested on: SK-MEL-2
HCT-15 = tested on: HCT-15
SNB-75 = tested on: SNB-75

Compound | GI50 (M14) | GI50 (OVCAR-5) | GI50 (SW-620) | GI50 (A498) | GI50 (UACC-257) | GI50 (ACHN) | GI50 (RXF 393) | GI50 (TK-10) | GI50 (LOX IMVI) | GI50 (UO-31) | GI50 (HCT-116) | GI50 (RPMI-8226) | GI50 (NCI-H226) | GI50 (786-0) | GI50 (SK-MEL-2) | GI50 (HCT-15) | GI50 (SNB-75)
CC(=O)c1ccc(NC(=O)C(=O)CC(=O)c2sc(-n3nc(-c4ccccc4)cc3-c3ccccc3)nc2C)cc1 | > 100 µM (inactive) | > 100 µM (inactive) | > 100 µM (inactive) | > 100 µM (inactive) | > 100 µM (inactive) | > 100 µM (inactive) | > 100 µM (inactive) | > 100 µM (inactive) | > 100 µM (inactive) | > 100 µM (inactive) | > 100 µM (inactive) | > 100 µM (inactive) | > 100 µM (inactive) | > 100 µM (inactive) | > 100 µM (inactive) | > 100 µM | –
CN1Nc2ccccc2CC1=O | > 100 µM (inactive) | > 100 µM (inactive) | > 100 µM (inactive) | > 100 µM (inactive) | > 100 µM (inactive) | > 100 µM (inactive) | – | > 100 µM (inactive) | > 100 µM (inactive) | > 100 µM (inactive) | > 100 µM (inactive) | > 100 µM (inactive) | > 100 µM (inactive) | > 100 µM (inactive) | > 100 µM (inactive) | > 100 µM | > 100 µM (inactive)
Cc1ccc(S(=O)(=O)NNC(=O)c2sc(-c3nc(C)c(C(=O)NNS(=O)(=O)c4ccc(C)cc4)s3)nc2C)cc1 | > 100 µM (inactive) | > 100 µM (inactive) | > 100 µM (inactive) | > 100 µM (inactive) | > 100 µM (inactive) | 97.9 µM (inactive) | > 100 µM (inactive) | > 100 µM (inactive) | > 100 µM (inactive) | 28.8 µM (inactive) | 84.5 µM (inactive) | 45.3 µM (inactive) | 50.7 µM (inactive) | 69.7 µM (inactive) | > 100 µM (inactive) | 47.1 µM | 58.3 µM (inactive)
COC(=O)[C@]1(C)C(OC)=CC(=O)C2C1[C@H]1CCC[C@@H]21 (stereo not given in full) | > 100 µM (inactive) | > 100 µM (inactive) | – | > 100 µM (inactive) | > 100 µM (inactive) | > 100 µM (inactive) | > 100 µM (inactive) | > 100 µM (inactive) | > 100 µM (inactive) | > 100 µM (inactive) | > 100 µM (inactive) | > 100 µM (inactive) | > 100 µM (inactive) | > 100 µM (inactive) | > 100 µM (inactive) | > 100 µM | > 100 µM (inactive)
CCN(CC)CCNc1ccc2ncn3c4ccccc4c(=O)c1c23 | 4.91 µM (inactive) | 7.93 µM (inactive) | 2.52 µM (inactive) | 6.7 µM (inactive) | 4.23 µM (inactive) | 2.24 µM (inactive) | – | 7.41 µM (inactive) | 1.64 µM (inactive) | 2.08 µM (inactive) | 0.916 µM (active) | 4.59 µM (inactive) | 2.18 µM (inactive) | 3.43 µM (inactive) | 5.01 µM (inactive) | 3.96 µM | –
Cc1nc2nn(Cc3ccccc3)cc2c(=O)o1 | – | > 100 µM (inactive) | > 100 µM (inactive) | > 100 µM (inactive) | > 100 µM (inactive) | > 100 µM (inactive) | 44 µM (inactive) | > 100 µM (inactive) | > 100 µM (inactive) | > 100 µM (inactive) | > 100 µM (inactive) | > 100 µM (inactive) | > 100 µM (inactive) | > 100 µM (inactive) | > 100 µM (inactive) | > 100 µM | > 100 µM (inactive)
CC(C)(C)NNC(=O)/C(=C/c1ccc(Oc2ccc(Cl)c(Cl)c2)cc1)NC(=O)c1ccccc1 | > 100 µM (inactive) | > 100 µM (inactive) | – | > 100 µM (inactive) | > 100 µM (inactive) | > 100 µM (inactive) | > 100 µM (inactive) | > 100 µM (inactive) | 18.9 µM (inactive) | > 100 µM (inactive) | > 100 µM (inactive) | 22.1 µM (inactive) | > 100 µM (inactive) | 59.6 µM (inactive) | > 100 µM (inactive) | > 100 µM | > 100 µM (inactive)
O=C(N/N=C/c1ccccc1O)N/N=C/c1ccccc1O | > 100 µM (inactive) | > 100 µM (inactive) | > 100 µM (inactive) | > 100 µM (inactive) | > 100 µM (inactive) | > 100 µM (inactive) | > 100 µM (inactive) | > 100 µM (inactive) | > 100 µM (inactive) | > 100 µM (inactive) | > 100 µM (inactive) | > 100 µM (inactive) | > 100 µM (inactive) | > 100 µM (inactive) | > 100 µM (inactive) | > 100 µM | > 100 µM (inactive)
O=C(NO)c1ccc(O)c(O)c1 | > 100 µM (inactive) | 94.6 µM (inactive) | 47.6 µM (inactive) | > 100 µM (inactive) | > 100 µM (inactive) | > 100 µM (inactive) | > 100 µM (inactive) | 98.6 µM (inactive) | > 10 µM (inactive) | > 100 µM (inactive) | > 100 µM (inactive) | 32.4 µM (inactive) | > 100 µM (inactive) | > 100 µM (inactive) | – | 98.4 µM | > 100 µM (inactive)

Reference: ChEMBL document CHEMBL1201862, “PubChem BioAssay data set” (2004)
